Measured values published in publication PMC12522199 (RSC Advances, 2025).

Molecular target: HamA (Burkholderia cenocepacia, UniProt A0A144VC93)
Assay: microscale thermophoresis
Format: binding

For O=C(O)CCC(=O)C(=O)O [2-oxoglutarate], the Kd was 208 ± 1.42 µM.
